Test results published in paper PMC6887759, “The C-Type Lysozyme from the upper Gastrointestinal Tract of Opisthocomus hoatzin, the Stinkbird” (International Journal of Molecular Sciences, 2019).

Key:
[1] = molecular target: T1, OhLys-kexB (E35A variant used for the ligand complexes) (Opisthocomus hoazin, UniProt Q91159, INS20KR/E54A); experiment: X-ray crystallography, co-crystallisation; type: binding; conditions: density essentially identical to the chitohexaose co-crystal, subsites -1 to -3 (poorly ordered -4); not fully refined; mature numbering
T1 construct: gene LYZ; mature enzyme, 126 residues in wild type, secreted from Aspergillus oryzae; Lys-Arg inserted between Glu1 and Ile2 (uncleaved kexB site), N-terminus EKRIIPRCELV; monomer in asymmetric unit

[2] = molecular target: T1, OhLys-kexB (E35A variant used for the ligand complexes); experiment: X-ray crystallography, co-crystallisation; type: biochemical; conditions: added as chitohexaose; hydrolysed by residual activity, so only sugars in -1 to -3 (weak -4) seen; intact hexamer not observed; mature numbering

T1 sequence (Q91159 other isoform, or with tags, fused parts or gaps INS20KR/E54A): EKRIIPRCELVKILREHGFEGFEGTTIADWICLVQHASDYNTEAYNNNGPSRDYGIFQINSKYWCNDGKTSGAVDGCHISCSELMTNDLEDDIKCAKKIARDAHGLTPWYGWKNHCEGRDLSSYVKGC

Row | SMILES | X-ray crystallography, co-crystallisation [1] | X-ray crystallography, co-crystallisation [2]
1 | CC(=O)N[C@H]1[C@H](O[C@H]2[C@H](O)[C@@H](NC(C)=O)C(O)O[C@@H]2CO)O[C@H](CO)[C@@H](O[C@@H]2O[C@H](CO)[C@@H](O[C@@H]3O[C@H](CO)[C@@H](O)[C@H](O)[C@H]3NC(C)=O)[C@H](O)[C@H]2NC(C)=O)[C@@H]1O (some centres unmarked) [chitotetraose] | The density for the chitotetraose ligand is essentially identical to this | –
2 | CC(=O)N[C@H]1[C@H](O[C@H]2[C@H](O)[C@@H](NC(C)=O)[C@H](O[C@H]3[C@H](O)[C@@H](NC(C)=O)C(O)O[C@@H]3CO)O[C@@H]2CO)O[C@H](CO)[C@@H](O[C@@H]2O[C@H](CO)[C@@H](O[C@@H]3O[C@H](CO)[C@@H](O[C@@H]4O[C@H](CO)[C@@H](O)[C@H](O)[C@H]4NC(C)=O)[C@H](O)[C@H]3NC(C)=O)[C@H](O)[C@H]2NC(C)=O)[C@@H]1O (some centres unmarked) [chitohexaose] | – | hydrolyse; at the high protein concentrations of a prolonged crystallization, the chitohexaose substrate
